Assay results taken from US20230416676A1, “Method for Reprogramming Cell” (Celpaten Consulting Partnership (Limited Partnership), priority 2020, published 2023).

What follows are compounds tested on Wnt1-tdTomato- MEFs (assay: Conversion of MEFs into ciNCCs with M6 medium (Wnt1-tdTomato lineage tracing)). Settings: added to Chir99021, SB431542 and forskolin (FIG. 8C).
Format: cell-based, mouse
Method: The basal medium contained knockout DMEM (Gibco), 10% KSR (Gibco), 10% FBS (Gibco), 1% NEAA (Gibco), and 0.1 mM 2-mercaptoethanol (Gibco) supplemented with the small molecules CHIR99021 (3 μM), SB431542 (5 μM), Forskolin (10 μM), VPA ([…]), EPZ004777 (5 μM), and 5-Aza-dC (0.5 μM). The medium was shaken for 30 min to ensure that all components were fully dissolved.
The MEFs were plated at 5×10^4 cells per well on six-well tissue culture plates in fibroblast medium. The culture plates were precoated with fibronectin or laminin for more than 2 hours. After overnight culture, the medium was exchanged with M6 chemical medium, which was refreshed every 2 days. NCC-like cells appeared and increased at days 3 to 5. After 7 to 10 days of induction, FACS was performed to collect Wnt1^+ cells.
For corneal endothelium is derived from NCCs, a two-step method for reprogramming mouse fibroblasts into CEC-like cells using small molecules was designed, in which the first step was to guide mouse embryonic fibroblasts (MEFs) to be chemically reprogrammed into ciNCCs. To identify small molecules with the potential to convert fibroblasts into ciNCCs, we used a lineage tracing strategy to trace the conversion process and excluded any NCCs or progenitor cells from the starting MEFs (FIGS. 8A and 15A). Wnt1-Cre transgenic mice have been validated as a lineage-tracing reporter model for NCC development. In Wnt1-Cre/ROSA26tdTomato mice, tdTomato protein was faithfully expressed in NCCs. MEFs were thus isolated from Wnt1-Cre/ROSA26tdTomato mice at embryonic day 13.5 (E13.5). Because the NCC population was marked with tdTomato, we performed fluorescence-activated cell sorting (FACS) to collect the tdTomato^− population to exclude any NCCs or progenitors (the purified cells are hereinafter referred to as Wnt1-tdTomato-MEFs; FIG. 15B). We confirmed that the Wnt1-tdTomato^− MEFs were also negative for other NCC markers, including Sox10, P75, Pax3, HNK1, and AP2α (FIGS. 15C and 15D). Further, these Wnt1-tdTomato^− MEFs were negative for typical NSC markers, including Sox2, Pax6 and Nestin (data not shown). […]

Which “effect of individual chemical on induction of Wnt1-tdTomato+ cells” value (“effect of individual chemical” for short) does the source give for `CC(C)N(CCCNC(=O)Nc1ccc(C(C)(C)C)cc1)C[C@H]1O[C@@H](n2ccc3c(N)ncnc32)[C@H](O)[C@@H]1O` [EPZ004777] here?
The value was “further promoted induction of Wnt1-tdTomato^+ cells”.

For `CCCC(CCC)C(=O)O` [VPA, Valproic acid], which “effect of individual chemical” value is on record?
The value was “further promoted induction of Wnt1-tdTomato^+ cells”.

Which “effect of individual chemical” value does the source give for `Nc1ncn([C@H]2C[C@H](O)[C@@H](CO)O2)c(=O)n1` [5-Aza-dC] here?
The value was “further promoted induction of Wnt1-tdTomato^+ cells”.
